# Test results published in PubChem BioAssay (NCI).
#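 Interpolation was linear, between the two tested concentrations surrounding the appropriate level; five concentrations were tested over 48 hours in 96-well plates. GI50 = concentration required for 50% inhibition of growth. The concentration for full growth arrest is given as TGI.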
# Assays:
# Assay in all cases: NCI-60 cell line screen, 48 h
# SNB-75 CNS = tested on: SNB-75 CNS
# OVCAR-4 ovarian = tested on: OVCAR-4 ovarian
# NCI-H23 lung = tested on: NCI-H23 lung
# MCF7 breast = tested on: MCF7 breast
# UACC-257 melanoma = tested on: UACC-257 melanoma
# MOLT-4 leukemia = tested on: MOLT-4 leukemia
# NCI-H226 lung = tested on: NCI-H226 lung
# OVCAR-8 ovarian = tested on: OVCAR-8 ovarian
# HCT-116 colon = tested on: HCT-116 colon
# OVCAR-5 ovarian = tested on: OVCAR-5 ovarian
# UO-31 renal = tested on: UO-31 renal
# MALME-3M melanoma = tested on: MALME-3M melanoma
# U251 CNS = tested on: U251 CNS
# M14 melanoma = tested on: M14 melanoma
# A498 renal = tested on: A498 renal
# NCI/ADR-RES ovarian = tested on: NCI/ADR-RES ovarian
# PC-3 prostate = tested on: PC-3 prostate
# RXF 393 renal = tested on: RXF 393 renal
# 786-0 renal = tested on: 786-0 renal
# KM12 colon = tested on: KM12 colon
# SW-620 colon = tested on: SW-620 colon
# SF-539 CNS = tested on: SF-539 CNS
# HT29 colon = tested on: HT29 colon
# A549 NSCLC = tested on: A549 NSCLC
# SNB-19 CNS = tested on: SNB-19 CNS
# SK-MEL-5 melanoma = tested on: SK-MEL-5 melanoma
# MDA-MB-231 breast = tested on: MDA-MB-231 breast
# SR leukemia = tested on: SR leukemia
# NCI-H460 lung = tested on: NCI-H460 lung
# T-47D breast = tested on: T-47D breast
# HCT-15 colon = tested on: HCT-15 colon
# BT-549 breast = tested on: BT-549 breast
# UACC-62 melanoma = tested on: UACC-62 melanoma
# HL-60(TB) leukemia = tested on: HL-60(TB) leukemia
# SK-MEL-28 melanoma = tested on: SK-MEL-28 melanoma
# CAKI-1 renal = tested on: CAKI-1 renal
# OVCAR-3 ovarian = tested on: OVCAR-3 ovarian
# HOP-62 NSCLC = tested on: HOP-62 NSCLC
# SN12C renal = tested on: SN12C renal
# SK-MEL-2 melanoma = tested on: SK-MEL-2 melanoma
# HCC-2998 colon = tested on: HCC-2998 colon
# TK-10 renal = tested on: TK-10 renal
# DU-145 prostate = tested on: DU-145 prostate
# HS 578T breast = tested on: HS 578T breast
# LOX IMVI melanoma = tested on: LOX IMVI melanoma
# COLO 205 colon = tested on: COLO 205 colon
# RPMI-8226 leukemia = tested on: RPMI-8226 leukemia
# MDA-MB-435 = tested on: MDA-MB-435
# K-562 leukemia = tested on: K-562 leukemia
# SF-295 CNS = tested on: SF-295 CNS
# ACHN renal = tested on: ACHN renal
# CCRF-CEM leukemia = tested on: CCRF-CEM leukemia
# SF-268 CNS = tested on: SF-268 CNS
# SK-OV-3 ovarian = tested on: SK-OV-3 ovarian
# HOP-92 NSCLC = tested on: HOP-92 NSCLC
# IGROV1 ovarian = tested on: IGROV1 ovarian
# NCI-H522 lung = tested on: NCI-H522 lung
compound,measurement,setting,value
CCCCCCCCCCCCCOC(=O)c1c(C)[nH]c(/C=C2\N=C(c3ccc[nH]3)C=C2OC)c1C,GI50,SNB-75 CNS,0.919 µM
same,TGI,SNB-75 CNS,10.9 µM
same,GI50,OVCAR-4 ovarian,0.425 µM
same,TGI,OVCAR-4 ovarian,> 100 µM
same,GI50,NCI-H23 lung,0.244 µM
same,TGI,NCI-H23 lung,31.4 µM
same,GI50,MCF7 breast,0.0248 µM
same,TGI,MCF7 breast,> 100 µM
same,GI50,UACC-257 melanoma,0.588 µM
same,TGI,UACC-257 melanoma,> 100 µM
same,GI50,MOLT-4 leukemia,0.0807 µM
same,TGI,MOLT-4 leukemia,> 100 µM
same,GI50,NCI-H226 lung,1.02 µM
same,TGI,NCI-H226 lung,> 57.4 µM
same,GI50,OVCAR-8 ovarian,0.0454 µM
same,GI50,HCT-116 colon,< 0.0122 µM
same,GI50,OVCAR-5 ovarian,0.0929 µM
same,TGI,OVCAR-5 ovarian,> 100 µM
same,GI50,UO-31 renal,0.103 µM
same,TGI,UO-31 renal,0.443 µM
same,GI50,MALME-3M melanoma,2.6 µM
same,TGI,MALME-3M melanoma,> 100 µM
same,GI50,U251 CNS,0.0764 µM
same,TGI,U251 CNS,17.7 µM
same,GI50,M14 melanoma,0.0178 µM
same,TGI,M14 melanoma,0.0461 µM
same,GI50,A498 renal,0.481 µM
same,TGI,A498 renal,10.8 µM
same,GI50,NCI/ADR-RES ovarian,0.116 µM
same,TGI,NCI/ADR-RES ovarian,> 100 µM
same,GI50,PC-3 prostate,0.02 µM
same,TGI,PC-3 prostate,> 100 µM
same,GI50,RXF 393 renal,0.465 µM
same,TGI,RXF 393 renal,10.5 µM
same,GI50,786-0 renal,0.161 µM
same,TGI,786-0 renal,12.7 µM
same,GI50,KM12 colon,< 0.0167 µM
same,TGI,KM12 colon,> 100 µM
same,GI50,SW-620 colon,0.0204 µM
same,TGI,SW-620 colon,> 37.1 µM
same,GI50,SF-539 CNS,0.182 µM
same,TGI,SF-539 CNS,> 26.9 µM
same,GI50,HT29 colon,< 0.0126 µM
same,TGI,HT29 colon,> 100 µM
same,GI50,A549 NSCLC,0.0419 µM
same,TGI,A549 NSCLC,0.505 µM
same,GI50,SNB-19 CNS,5.37 µM
same,TGI,SNB-19 CNS,> 87.6 µM
same,GI50,SK-MEL-5 melanoma,0.0194 µM
same,TGI,SK-MEL-5 melanoma,0.0911 µM
same,GI50,MDA-MB-231 breast,< 0.0314 µM
same,GI50,SR leukemia,< 0.0118 µM
same,TGI,SR leukemia,0.145 µM
same,GI50,NCI-H460 lung,< 0.017 µM
same,TGI,NCI-H460 lung,> 100 µM
same,GI50,T-47D breast,0.0583 µM
same,TGI,T-47D breast,> 43.4 µM
same,GI50,HCT-15 colon,0.0262 µM
same,GI50,BT-549 breast,0.237 µM
same,TGI,BT-549 breast,36.7 µM
same,GI50,UACC-62 melanoma,0.0329 µM
same,TGI,UACC-62 melanoma,0.139 µM
same,GI50,HL-60(TB) leukemia,0.0182 µM
same,GI50,SK-MEL-28 melanoma,0.994 µM
same,TGI,SK-MEL-28 melanoma,> 52.6 µM
same,GI50,CAKI-1 renal,0.0336 µM
same,GI50,OVCAR-3 ovarian,0.227 µM
same,TGI,OVCAR-3 ovarian,15.5 µM
same,GI50,HOP-62 NSCLC,0.801 µM
same,TGI,HOP-62 NSCLC,14.2 µM
same,GI50,SN12C renal,0.156 µM
same,TGI,SN12C renal,> 100 µM
same,GI50,SK-MEL-2 melanoma,0.0294 µM
same,TGI,SK-MEL-2 melanoma,0.157 µM
same,GI50,HCC-2998 colon,0.0307 µM
same,TGI,HCC-2998 colon,> 44.4 µM
same,GI50,TK-10 renal,0.174 µM
same,TGI,TK-10 renal,20 µM
same,GI50,DU-145 prostate,0.0427 µM
same,TGI,DU-145 prostate,> 78.9 µM
same,GI50,HS 578T breast,0.0853 µM
same,TGI,HS 578T breast,5.47 µM
same,TGI,LOX IMVI melanoma,0.0223 µM
same,GI50,COLO 205 colon,0.0583 µM
same,TGI,COLO 205 colon,> 100 µM
same,GI50,RPMI-8226 leukemia,0.0498 µM
same,TGI,RPMI-8226 leukemia,> 100 µM
same,GI50,MDA-MB-435,0.0411 µM
same,TGI,MDA-MB-435,> 100 µM
same,GI50,K-562 leukemia,0.0392 µM
same,TGI,K-562 leukemia,> 100 µM
same,GI50,SF-295 CNS,1.75 µM
same,TGI,SF-295 CNS,37.7 µM
same,GI50,ACHN renal,0.139 µM
same,TGI,ACHN renal,12.5 µM
same,GI50,CCRF-CEM leukemia,0.0303 µM
same,TGI,CCRF-CEM leukemia,> 100 µM
same,GI50,SF-268 CNS,0.109 µM
same,TGI,SF-268 CNS,> 59 µM
same,GI50,SK-OV-3 ovarian,2.8 µM
same,TGI,SK-OV-3 ovarian,37.1 µM
same,GI50,HOP-92 NSCLC,0.0698 µM
same,TGI,HOP-92 NSCLC,0.497 µM
same,GI50,IGROV1 ovarian,0.122 µM
same,TGI,IGROV1 ovarian,30.1 µM
same,GI50,NCI-H522 lung,0.215 µM
same,TGI,NCI-H522 lung,> 64.3 µM
